In PMC12040169 (PLOS Biology, 2025):

Assay: in vitro
Conditions: human, hela cells, % viability

Q: Which viability at 28.5 h, 10 µM does the source give for `COc1ccc2c(c1)C1(CC(=O)N(CC(=O)N(C)C)C1=O)C(=O)N2CCCN(C)S(C)(=O)=O` (stereo not shown) [CBK075889] here?
A: Its viability at 28.5 h, 10 µM is 118%.

Q: Which viability at 28.5 h, 10 µM does the source give for `COc1ccc2c(c1)C1(CC(=O)N(CC(=O)N(C)C)C1=O)C(=O)N2CC(=O)c1ccccc1` (stereo not shown) [CBK075913] here?
A: Its viability at 28.5 h, 10 µM is 96.9%.

Q: For `COc1ccc2c(c1)C1(CC(=O)N(CC(=O)N(C)C)C1=O)C(=O)N2Cc1ccc2ccccc2n1` (stereo not shown) [CBK075923], which viability at 28.5 h, 10 µM is on record?
A: Its viability at 28.5 h, 10 µM is 93.7%.

Q: For `COc1cc(OC)nc(CN2C(=O)C3(CC(=O)N(CCCN4C(=O)c5ccccc5C4=O)C3=O)c3cc(C)ccc32)n1` (stereo not shown) [CBK075992], which viability at 28.5 h, 10 µM is on record?
A: Its viability at 28.5 h, 10 µM is 91.5%.

Q: Which viability at 28.5 h, 10 µM does the source give for `COc1cc(OC)nc(CN2C(=O)CC3(C2=O)C(=O)N(CCCN(C)C(=O)c2ccco2)c2ccc(F)cc23)n1` (stereo not shown) [CBK076006] here?
A: The viability at 28.5 h, 10 µM was 85.6%.

Q: Which viability at 28.5 h, 10 µM does the source give for `COc1cccc(CN2C(=O)CC3(C2=O)C(=O)N(Cc2ccc4ccccc4n2)c2ccccc23)c1` (stereo not shown) [CBK076016] here?
A: The viability at 28.5 h, 10 µM was 96.2%.

Q: Which viability at 28.5 h, 10 µM does the source give for `O=C1CCC(=O)N1CCN1C(=O)C2(CC(=O)N(CCC(F)(F)F)C2=O)c2ccccc21` (stereo not shown) [CBK076031] here?
A: Its viability at 28.5 h, 10 µM is 105%.

Q: Which viability at 28.5 h, 10 µM does the source give for `COc1ccc2c(c1)C1(CC(=O)N(CC(=O)N(C)OC)C1=O)C(=O)N2CCCCOc1ccccc1` (stereo not shown) [CBK076032] here?
A: The viability at 28.5 h, 10 µM was 92.6%.

Q: With `COc1ccc2c(c1)C1(CC(=O)N(Cc3ccccc3)C1=O)C(=O)N2CC(=O)O` (stereo not shown) [CBK076108] as the compound, how does the viability at 28.5 h, 10 µM read?
A: Its viability at 28.5 h, 10 µM is 92.5%.

Q: For `CN1CCN(C(=O)c2ccc(-c3ccc4c(c3)OCO4)nc2NCc2cccnc2)CC1` [CBK076110], which viability at 28.5 h, 10 µM is on record?
A: Its viability at 28.5 h, 10 µM is 90.7%.

Q: For `O=C(NCCN1CCOCC1)c1ccc(-c2ccco2)nc1NCc1cccnc1` [CBK076112], which viability at 28.5 h, 10 µM is on record?
A: The viability at 28.5 h, 10 µM was 101%.

Q: Which viability at 28.5 h, 10 µM does the source give for `Cc1ccccc1-c1ccc(C(=O)NCCc2ccc(S(N)(=O)=O)cc2)c(NCc2cccnc2)n1` [CBK076116] here?
A: Its viability at 28.5 h, 10 µM is 98.4%.

Q: For `CN(C)C(=O)CN1C(=O)CC2(C1=O)C(=O)N(CC(=O)O)c1ccc(F)cc12` (stereo not shown) [CBK076119], which viability at 28.5 h, 10 µM is on record?
A: The viability at 28.5 h, 10 µM was 101%.

Q: Which viability at 28.5 h, 10 µM does the source give for `Cc1ccccc1-c1ccc(C(=O)N2CCN(C)CC2)c(NCc2cccnc2)n1` [CBK076125] here?
A: The viability at 28.5 h, 10 µM was 93.2%.

Q: For `Cc1ccccc1-c1ccc(C(=O)NC2CCCCC2)c(NCc2cccnc2)n1` [CBK076159], which viability at 28.5 h, 10 µM is on record?
A: The viability at 28.5 h, 10 µM was 90.5%.

Q: For `CN(C)CCN(C)C(=O)c1ccc(-c2cc3ccccc3o2)nc1NCc1cccnc1` [CBK076160], which viability at 28.5 h, 10 µM is on record?
A: Its viability at 28.5 h, 10 µM is 90.8%.

Q: For `COCCOCN1C(=O)CC2(C1=O)C(=O)N(CC(=O)O)c1ccc(F)cc12` (stereo not shown) [CBK076163], which viability at 28.5 h, 10 µM is on record?
A: The viability at 28.5 h, 10 µM was 90.5%.

Q: Which viability at 28.5 h, 10 µM does the source give for `Cc1ccccc1-c1ccc(C(=O)Nc2ccc3c(c2)OCO3)c(N2CCN(C(=O)c3ccco3)CC2)n1` [CBK076196] here?
A: Its viability at 28.5 h, 10 µM is 101%.

Q: With `CS(=O)(=O)c1cccc(-c2cnc(NCCOc3ccccc3)c(C(=O)NCCc3ccccc3)c2)c1` [CBK076201] as the compound, how does the viability at 28.5 h, 10 µM read?
A: The viability at 28.5 h, 10 µM was 96.5%.

Q: For `O=C(NCCN1CCOCC1)c1cc(Br)cnc1N1CCOCC1` [CBK076202], which viability at 28.5 h, 10 µM is on record?
A: The viability at 28.5 h, 10 µM was 104%.

Q: With `COc1ccc(OCCNC(=O)c2ccc(-c3ccccc3C)nc2N2CCN(C(=O)c3ccco3)CC2)cc1` [CBK076207] as the compound, how does the viability at 28.5 h, 10 µM read?
A: The viability at 28.5 h, 10 µM was 85.6%.

Q: With `CCN1CCCC1CNC(=O)c1cc(Br)cnc1N1CCOCC1` (stereo not shown) [CBK076213] as the compound, how does the viability at 28.5 h, 10 µM read?
A: The viability at 28.5 h, 10 µM was 87.1%.

Q: With `O=C(NCCc1c[nH]c2ccccc12)c1cc(Br)cnc1N1CCOCC1` [CBK076224] as the compound, how does the viability at 28.5 h, 10 µM read?
A: The viability at 28.5 h, 10 µM was 91.7%.

Q: For `NS(=O)(=O)c1ccc(CCNC(=O)c2cc(Br)cnc2N2CCOCC2)cc1` [CBK076225], which viability at 28.5 h, 10 µM is on record?
A: Its viability at 28.5 h, 10 µM is 85.1%.

Q: Which viability at 28.5 h, 10 µM does the source give for `CC(=O)NCCNC(=O)c1cc(Br)cnc1NCCOc1ccccc1` [CBK076232] here?
A: The viability at 28.5 h, 10 µM was 103%.

Q: For `O=C(NCc1ccc(F)cc1)c1cc(Br)cnc1N1CCOCC1` [CBK076246], which viability at 28.5 h, 10 µM is on record?
A: The viability at 28.5 h, 10 µM was 89.1%.

Q: Which viability at 28.5 h, 10 µM does the source give for `O=C(NCc1ccco1)c1cc(Br)cnc1N1CCOCC1` [CBK076268] here?
A: Its viability at 28.5 h, 10 µM is 94.6%.

Q: For `COc1ccc(-c2cnc(NCC3CC3)c(C(=O)NCc3ccco3)c2)cc1` [CBK076283], which viability at 28.5 h, 10 µM is on record?
A: The viability at 28.5 h, 10 µM was 96.3%.

Q: With `COCCNC(=O)c1cc(-c2cccc(N(C)C)c2)cnc1NCC1CC1` [CBK076288] as the compound, how does the viability at 28.5 h, 10 µM read?
A: Its viability at 28.5 h, 10 µM is 93.9%.

Q: Which viability at 28.5 h, 10 µM does the source give for `CNC(=O)c1cccc(NC(=O)c2cc(-c3cccnc3)cnc2NCc2ccc3c(c2)OCO3)c1` [CBK076291] here?
A: Its viability at 28.5 h, 10 µM is 89.4%.

Q: With `Cc1ccc(C(=O)NCCN2CCOCC2)c(N2CCN(C(=O)c3ccco3)CC2)n1` [CBK076312] as the compound, how does the viability at 28.5 h, 10 µM read?
A: The viability at 28.5 h, 10 µM was 101%.
